Read-outs that look alike come from different tables or passages of the source.
How the values were obtained:
rat 5-HT3 receptor = molecular target: T1, rat 5-HT3 receptor (Rattus norvegicus, UniProt P35563); assay: Receptor binding assay, rat 5-HT3 receptor (selectivity); settings: binding selectivity vs rat 5-HT3 receptor
T1 sequence (P35563 24-483): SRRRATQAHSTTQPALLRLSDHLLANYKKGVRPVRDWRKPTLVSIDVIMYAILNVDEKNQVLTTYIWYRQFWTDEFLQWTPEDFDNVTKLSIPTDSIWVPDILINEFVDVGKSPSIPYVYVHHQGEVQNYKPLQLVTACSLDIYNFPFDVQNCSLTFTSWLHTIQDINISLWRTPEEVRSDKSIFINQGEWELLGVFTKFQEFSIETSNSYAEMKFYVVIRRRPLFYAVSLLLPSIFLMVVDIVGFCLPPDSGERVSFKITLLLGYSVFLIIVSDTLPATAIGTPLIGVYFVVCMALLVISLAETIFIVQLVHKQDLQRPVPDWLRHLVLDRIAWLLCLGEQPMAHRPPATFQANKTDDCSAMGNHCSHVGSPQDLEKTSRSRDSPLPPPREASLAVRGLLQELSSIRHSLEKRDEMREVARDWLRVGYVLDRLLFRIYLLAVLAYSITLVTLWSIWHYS
Protocol: (§1) Receptor Binding Assays. The affinities of 1-4 for the rat α4β2 and α7 nAChRs were determined as described previously (Mullen, et al., J. Med. Chem.; 2000;43(22):4045-50). Affinities for the rat 5-HT3 receptor were also determined as described previously (Macor, et al., Bioorg. Med. Chem. Lett. 2001;11(3):319-21). All Ki determinations were done using 5-7 concentrations. […] There was a wide margin in selectivity compared to the α4β2 receptor subtype. Also included are the relative binding affinities to the 5-HT3 receptor, which has high sequence homology to the α7-nAChR.

rat α4β2 nAChR = rat α4β2 nAChR (Rattus norvegicus, UniProt P09483+P12390); assay: Receptor binding assay, rat α4β2 nAChR (selectivity); settings: binding selectivity vs rat α4β2 nAChR
Protocol: as §1

rat α7 nAChR = rat α7 nAChR (Rattus norvegicus, UniProt Q05941); assay: Receptor binding assay, rat α7 nAChR
Protocol: as §1

[1] = Rodent in vivo biodistribution (brain kinetics); design: species or system male CD-1 mice; settings: for Brain distribution, F. CTX / Brain distribution, S. COLL / Brain distribution, CB / Brain distribution, CTX / Brain distribution, HIPP / Brain distribution, STR / Brain distribution, THAL / Brain distribution, HYPO: mice; for Brain distribution, CB: cerebellum; for Brain distribution, CTX: cortex; for Brain distribution, HIPP: hippocampus; for Regional selectivity of brain uptake: all time points, in words; for Uptake within the brain (in words): i.v. radiotracer; for Brain distribution, STR: striatum; for Brain distribution, THAL: thalamus; for Brain distribution, HYPO: hypothalamus; for Uptake/retention in target tissue (hippocampus): mouse hippocampus vs other brain substructures, FIG. 1 / FIG. 3
Protocol: (§2) Rodent In Vivo Biodistribution Studies of 1-4. Male CD-1 mice weighing between 20 and 25 g received an injection of 3.7 MBq (100 μCi) for 1 and 2 and 0.67 MBq ([…]) for 3 and 4 through the tail vein. The corresponding amounts administered were 0.2-0.8 μg/kg for 1 and 2 and 0.01-0.02 μg/kg for 3 and 4. For kinetic studies of 1-4, the mice were killed by cervical dislocation at 5, 15, 30 and 60 min after intravenous injection of radiotracer in 200 μL saline vehicle. The brains were removed and placed on ice, and the cerebellum, olfactory bulb, hypothalamus, hippocampus, striatum, cortex, brain stem and thalamus were harvested. A 45 min time point was obtained for 2 and one at 120 min for 3 and 4. The tissue samples were weighed and their radioactivity determined in an automated □ counter (1282 Compugamma CS; Pharmacia/LKB Nuclear Inc., Gaithersburg, Md.). The radioactivity concentration in aliquots of the injected tracer were determined along with the samples and served as standards for the calculation of percentage injected dose per gram of tissue (% ID/g). To assess binding specificity, subgroups of mice were treated with 10 mg/kg nicotine (for D or increasing doses of unlabeled 4 (0.01-10 mg/kg) 5 min prior to injection of radiotracer. Mice were killed at 30 and 60 min after blockade for 3 and 4, respectively.

α7-nAChR = molecular target: T2, α7-nAChR (Mus musculus, UniProt P49582); assay: In vivo binding specificity (receptor blockade) study; design: species or system male CD-1 mice
T2 construct: Male CD-1 mice weighing between 20 and 25 g received an injection; from tissue; host or cells: brain of living male CD-1 mice (hippocampus, cortex and other regions)
Protocol: as §2

[2] = rat α7 nAChR, nonradioactive analogs, 5-7 concentrations, read-out: Ki
[3] = 30 min, low specific activity (LSA)
[4] = 60 min, low specific activity (LSA)

Sequence of rat α4β2 nAChR (P09483 31-630): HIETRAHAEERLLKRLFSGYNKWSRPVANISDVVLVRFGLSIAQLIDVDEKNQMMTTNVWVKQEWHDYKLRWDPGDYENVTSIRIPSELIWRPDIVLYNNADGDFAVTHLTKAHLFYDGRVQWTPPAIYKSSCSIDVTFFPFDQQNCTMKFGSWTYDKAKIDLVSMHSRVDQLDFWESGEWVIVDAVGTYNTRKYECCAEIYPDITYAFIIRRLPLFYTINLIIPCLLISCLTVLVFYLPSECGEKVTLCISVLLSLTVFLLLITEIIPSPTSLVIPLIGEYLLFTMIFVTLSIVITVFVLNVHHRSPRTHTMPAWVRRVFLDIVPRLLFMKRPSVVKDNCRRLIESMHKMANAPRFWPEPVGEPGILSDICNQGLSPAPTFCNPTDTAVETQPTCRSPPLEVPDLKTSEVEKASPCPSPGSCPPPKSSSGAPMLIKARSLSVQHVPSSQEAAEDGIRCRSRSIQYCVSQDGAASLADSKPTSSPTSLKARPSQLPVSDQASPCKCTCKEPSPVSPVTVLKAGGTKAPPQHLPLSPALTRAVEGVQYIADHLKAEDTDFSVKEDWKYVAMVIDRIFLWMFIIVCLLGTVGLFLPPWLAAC
Sequence of rat α4β2 nAChR (P12390 25-500): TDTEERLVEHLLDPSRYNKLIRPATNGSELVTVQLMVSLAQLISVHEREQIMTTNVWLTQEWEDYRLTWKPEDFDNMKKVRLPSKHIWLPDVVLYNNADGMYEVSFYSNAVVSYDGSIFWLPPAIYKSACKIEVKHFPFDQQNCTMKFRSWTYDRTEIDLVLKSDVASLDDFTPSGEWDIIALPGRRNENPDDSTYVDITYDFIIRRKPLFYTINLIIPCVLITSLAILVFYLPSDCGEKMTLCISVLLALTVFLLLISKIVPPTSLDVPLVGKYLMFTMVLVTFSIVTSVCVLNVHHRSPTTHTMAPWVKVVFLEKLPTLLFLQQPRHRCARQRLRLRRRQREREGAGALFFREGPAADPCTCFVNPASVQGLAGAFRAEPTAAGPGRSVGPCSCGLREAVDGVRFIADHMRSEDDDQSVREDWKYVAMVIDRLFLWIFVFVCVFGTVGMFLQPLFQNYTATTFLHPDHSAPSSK
Sequence of rat α7 nAChR (Q05941 23-502): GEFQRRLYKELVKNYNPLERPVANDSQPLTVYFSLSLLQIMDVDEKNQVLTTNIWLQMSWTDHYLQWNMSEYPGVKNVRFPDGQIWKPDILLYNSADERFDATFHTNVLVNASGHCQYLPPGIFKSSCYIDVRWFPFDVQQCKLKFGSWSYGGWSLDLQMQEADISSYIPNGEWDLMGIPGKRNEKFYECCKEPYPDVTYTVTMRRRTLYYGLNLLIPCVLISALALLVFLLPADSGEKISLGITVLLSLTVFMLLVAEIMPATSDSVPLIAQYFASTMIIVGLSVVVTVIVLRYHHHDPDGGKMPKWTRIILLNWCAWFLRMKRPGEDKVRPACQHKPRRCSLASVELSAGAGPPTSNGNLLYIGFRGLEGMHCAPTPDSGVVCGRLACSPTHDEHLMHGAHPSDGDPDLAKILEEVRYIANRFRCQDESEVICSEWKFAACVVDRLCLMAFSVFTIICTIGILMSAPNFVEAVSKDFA
T2 sequence (P49582 23-502): as the sequence (Q05941 23-502) above, with A402T counted along it

O=C(NC1CN2CCC1CC2)c1ccc(Br)cc1 (centres unmarked) [3 (precursor)]
α7/5-HT3 (rat 5-HT3 receptor): 280 (1)
α7/α4 (rat α4β2 nAChR): 36000 (1)
Ki (rat α7 nAChR; [2]): 18 nM

[11CH3]N(Cc1ccccc1)c1cnc2c(c1)CC1(CN3CCC1CC3)O2 (stereo not drawn) [Compound 1, (2′R)-N-[^11C]methyl-N-(phenylmethyl)-spiro[1-azabicyclo[2.2.2]octane-3,2′(3′H)-furo[2,3-b]pyridin]-5′-amine]
α7/5-HT3 (rat 5-HT3 receptor): 18 (1)
Brain distribution, F. CTX ([1]; 5 min post i.v. injection): 1.77 ± 0.36 % ID/g
Brain distribution, F. CTX ([1]; 15 min post i.v. injection): 1.38 ± 0.25 % ID/g
Brain distribution, F. CTX [1, 3]: 1.28 ± 0.07 % ID/g
Brain distribution, F. CTX ([1]; 30 min post i.v. injection): 0.95 ± 0.06 % ID/g
Brain distribution, F. CTX [1, 4]: 1.07 ± 0.15 % ID/g
Brain distribution, F. CTX ([1]; 60 min post i.v. injection): 0.79 ± 0.11 % ID/g
Brain distribution, S. COLL ([1]; 5 min post i.v. injection): 1.49 ± 0.50 % ID/g
Brain distribution, S. COLL ([1]; 15 min post i.v. injection): 1.42 ± 0.26 % ID/g
Brain distribution, S. COLL [1, 3]: 1.04 ± 0.15 % ID/g
Brain distribution, S. COLL ([1]; 30 min post i.v. injection): 1.09 ± 0.14 % ID/g
Brain distribution, S. COLL [1, 4]: 0.88 ± 0.16 % ID/g
Brain distribution, CB ([1]; 5 min post i.v. injection): 1.66 ± 0.50 % ID/g
Brain distribution, CB ([1]; 15 min post i.v. injection): 1.38 ± 0.32 % ID/g
Brain distribution, CB [1, 3]: 1.00 ± 0.06 % ID/g
Brain distribution, CB ([1]; 30 min post i.v. injection): 1.16 ± 0.19 % ID/g
Brain distribution, CB [1, 4]: 0.65 ± 0.07 % ID/g
Brain distribution, CB ([1]; 60 min post i.v. injection): 0.84 ± 0.05 % ID/g
Brain distribution, CTX ([1]; 5 min post i.v. injection): 1.46 ± 0.48 % ID/g
Brain distribution, CTX ([1]; 15 min post i.v. injection): 1.28 ± 0.21 % ID/g
Brain distribution, CTX [1, 3]: 1.16 ± 0.13 % ID/g
Brain distribution, CTX ([1]; 30 min post i.v. injection): 0.89 ± 0.11 % ID/g
Brain distribution, CTX [1, 4]: 0.86 ± 0.15 % ID/g
Brain distribution, CTX ([1]; 60 min post i.v. injection): 0.69 ± 0.10 % ID/g
Brain distribution, HIPP ([1]; 5 min post i.v. injection): 1.24 ± 0.33 % ID/g
Brain distribution, HIPP ([1]; 15 min post i.v. injection): 1.12 ± 0.15 % ID/g
Brain distribution, HIPP [1, 3]: 1.27 ± 0.09 % ID/g
Brain distribution, HIPP ([1]; 30 min post i.v. injection): 0.91 ± 0.05 % ID/g
Brain distribution, HIPP [1, 4]: 0.98 ± 0.16 % ID/g
Brain distribution, HIPP ([1]; 60 min post i.v. injection): 0.81 ± 0.10 % ID/g
Regional selectivity of brain uptake ([1]; mouse brain): No α7-nAChR-selective, regional brain uptake
Uptake within the brain (in words) ([1]; mouse brain): limited but measurable uptake within the brain
Brain distribution, STR ([1]; 5 min post i.v. injection): 1.47 ± 0.38 % ID/g
Brain distribution, STR ([1]; 15 min post i.v. injection): 1.20 ± 0.15 % ID/g
Brain distribution, STR [1, 3]: 1.20 ± 0.05 % ID/g
Brain distribution, STR ([1]; 30 min post i.v. injection): 0.93 ± 0.10 % ID/g
Brain distribution, STR [1, 4]: 0.75 ± 0.22 % ID/g
Brain distribution, STR ([1]; 60 min post i.v. injection): 0.69 ± 0.06 % ID/g
Brain distribution, THAL ([1]; 5 min post i.v. injection): 1.61 ± 0.61 % ID/g
Brain distribution, THAL ([1]; 15 min post i.v. injection): 1.35 ± 0.28 % ID/g
Brain distribution, THAL [1, 3]: 1.23 ± 0.12 % ID/g
Brain distribution, THAL ([1]; 30 min post i.v. injection): 1.11 ± 0.06 % ID/g
Brain distribution, THAL [1, 4]: 0.81 ± 0.06 % ID/g
Brain distribution, THAL ([1]; 60 min post i.v. injection): 0.77 ± 0.10 % ID/g
α7/α4 (rat α4β2 nAChR): >22,000 (1)
Ki (rat α7 nAChR): 0.54 nM
Receptor blockade in low specific activity (LSA) studies (α7-nAChR; LSA determinations at 30 and 60 min, mice): nor was there evidence of receptor blockade

[11CH3]Sc1ccc(C(=O)NC2CN3CCC2CC3)cc1 [Compound 2, N—(R)-1-aza-bicyclo[2.2.2]oct-3-yl-4-[^11C]methylsulfanyl-benzamide]
α7/5-HT3 (rat 5-HT3 receptor): 1100 (1)
Brain distribution, CB ([1]; 5 min post i.v. injection): 0.23 ± 0.01 % ID/g
Brain distribution, CB ([1]; 15 min post i.v. injection): 0.26 ± 0.04 % ID/g
Brain distribution, CB ([1]; 30 min post i.v. injection): 0.14 ± 0.03 % ID/g
Brain distribution, CB ([1]; 45 min post i.v. injection): 0.09 ± 0.01 % ID/g
Brain distribution, CB ([1]; 60 min post i.v. injection): 0.08 ± 0.01 % ID/g
Brain distribution, CTX ([1]; 5 min post i.v. injection): 0.16 ± 0.04 % ID/g
Brain distribution, CTX ([1]; 15 min post i.v. injection): 0.17 ± 0.03 % ID/g
Brain distribution, CTX ([1]; 30 min post i.v. injection): 0.14 ± 0.05 % ID/g
Brain distribution, CTX ([1]; 45 min post i.v. injection): 0.10 ± 0.02 % ID/g
Brain distribution, CTX ([1]; 60 min post i.v. injection): 0.10 ± 0.02 % ID/g
Brain distribution, HIPP ([1]; 5 min post i.v. injection): 0.15 ± 0.01 % ID/g
Brain distribution, HIPP ([1]; 15 min post i.v. injection): 0.24 ± 0.04 % ID/g
Brain distribution, HIPP ([1]; 30 min post i.v. injection): 0.14 ± 0.03 % ID/g
Brain distribution, HIPP ([1]; 45 min post i.v. injection): 0.13 ± 0.02 % ID/g
Brain distribution, HIPP ([1]; 60 min post i.v. injection): 0.12 ± 0.02 % ID/g
Brain distribution, HYPO ([1]; 5 min post i.v. injection): 0.30 ± 0.02 % ID/g
Brain distribution, HYPO ([1]; 15 min post i.v. injection): 0.55 ± 0.05 % ID/g
Brain distribution, HYPO ([1]; 30 min post i.v. injection): 0.22 ± 0.04 % ID/g
Brain distribution, HYPO ([1]; 45 min post i.v. injection): 0.22 ± 0.09 % ID/g
Brain distribution, HYPO ([1]; 60 min post i.v. injection): 0.27 ± 0.05 % ID/g
Regional selectivity of brain uptake ([1]; mouse brain): no regional selectivity
Uptake within the brain (in words) ([1]; mouse brain): limited uptake
Brain distribution, STR ([1]; 5 min post i.v. injection): 0.22 ± 0.06 % ID/g
Brain distribution, STR ([1]; 15 min post i.v. injection): 0.37 ± 0.05 % ID/g
Brain distribution, STR ([1]; 30 min post i.v. injection): 0.16 ± 0.03 % ID/g
Brain distribution, STR ([1]; 45 min post i.v. injection): 0.15 ± 0.05 % ID/g
Brain distribution, STR ([1]; 60 min post i.v. injection): 0.18 ± 0.05 % ID/g
Brain distribution, THAL ([1]; 5 min post i.v. injection): 0.18 ± 0.02 % ID/g
Brain distribution, THAL ([1]; 15 min post i.v. injection): 0.26 ± 0.09 % ID/g
Brain distribution, THAL ([1]; 30 min post i.v. injection): 0.13 ± 0.03 % ID/g
Brain distribution, THAL ([1]; 45 min post i.v. injection): 0.10 ± 0.01 % ID/g
Brain distribution, THAL ([1]; 60 min post i.v. injection): 0.14 ± 0.03 % ID/g
α7/α4 (rat α4β2 nAChR): 14,000 (1)
Ki (rat α7 nAChR): 5.8 nM

O=C(NC1CN2CCC1CC2)c1ccc([125I])cc1 [Compound 3, N-(R)-1-Aza-bicyclo[2.2.2]oct-3-yl-4-[^125I]iodo-benzamide]
Uptake values within the brain ([1]; mouse brain, FIG. 1): < 0.4 % ID/g
Uptake/retention in target tissue (hippocampus) [1]: retention within hippocampus, a target tissue, was demonstrated
Blocking study (nicotine blockade) (α7-nAChR; 10 mg/kg nicotine 5 min before radiotracer, mice killed at 30 min, FIG. 2): failed to demonstrate regionally-selective blockade, although significantly decreased radiotracer uptake was demonstrated in the regions studied

[125I]c1occc1-c1cnc2c(c1)CC1(CN3CCC1CC3)O2 (stereo not drawn) [Compound 4, (2′R)-5′-(2-[^125I]iodo-3-furanyl)spiro[1-azabicyclo[2.2.2]octane]-3,2′(3′H)-furo[2,3-b]pyridine]
Uptake within the brain (in words) ([1]; mouse brain): gained ready access to the brain
Uptake/retention in target tissue (hippocampus) [1]: modest but higher uptake in target tissue (hippocampus) than within other brain substructures
Ki (rat α7 nAChR; [2]): 0.26 nM
Receptor blockade study (α7-nAChR; unlabeled 4 (0.01-10 mg/kg) 5 min before radiotracer, mice killed at 60 min, FIG. 4): significant blockade in the target tissue and slightly less so in cortex
